Laboratory results taken from the pKa sets of Baltruschat and Czodrowski (2020).

Conditions: acidic group

Structure (SMILES)	pKa
N#CC(C#N)=NNc1ccc([N+](=O)[O-])cc1Cl	4.15
CCN(CC)Cc1cc(OC)ccc1O	10.9
O=[N+]([O-])CSc1ccccc1	6.67
CCCCCc1c(-c2ccccc2)nn(-c2ccccc2)c1O	7.3
O=c1cc(S(=O)(=O)[O-])[nH]c(=O)[nH]1	7.26
O=S(=O)(Nc1ccccn1)c1ccccc1	8.2
Cc1ccc(NC(=S)c2cccc(Br)c2)cc1	10.9
O=CO	3.69
Cc1ccc([N+](C)(C)O)cc1	4.32
[NH3+][C@@H](Cn1cccn1)C(=O)O	2.2
Oc1ccccc1-c1cc2ccccc2cc1O	7.55
CCC#CC#CC(=O)O	1.91
O=CC1c2ccccc2-c2ccccc21	7.4
Oc1nsc2ccccc12	7.01
O=C(O)c1cc2ccccc2o1	2.84
Nc1ccc(S(=O)(=O)Nc2ccc(S(N)(=O)=O)cc2)cc1	7.85
CC1=NCCc2c1[nH]c1ccc([N+](=O)[O-])cc21	12.6
C=CCC1(C2=CCCCC2)C(=O)NC(=S)NC1=O	7.09
O=C1NC(=O)C(c2ccccc2)C1=O (stereo not drawn)	3.4
Cc1cc(=O)oc2cc(O)c(Cl)cc12	6.1
Oc1cccc[n+]1OCc1ccccc1	-1.7

Structure (SMILES)	pKa
CCOC(=O)c1ccccc1-n1nc(O)cc1C	12.3
CNc1cc[nH+]c(S)n1	3.09
Oc1onc2c1CC[NH2+]CC2	3.3
C/C=C\C=C/C(=O)O	4.51
CCC[Si](C)(CCC)CC(=O)O	5.65
Sc1cccc2ncccc12	6.48
O=c1oc2cc(O)ccc2cc1-c1ccccc1	7.8
CC1(C)CC(O)[N+](C)(C)C1 (stereo not drawn)	8.7
O=C1Cc2c1ccc(O)c2Br	5.75
Cc1cn([C@@H]2C[C@@H](O)[C@H](CO)O2)c(=O)[nH]c1=S	8.8
Cc1cccc([Se](=O)O)c1	4.8
CCCCCCCP(=O)(CCCCCCC)NC1CCCCC1	12.5
O=C(O)/C(I)=C/c1ccccc1	3.3
Oc1c(Cl)c(Cl)cc(Cl)c1C[NH+]1CCOCC1	4.92
CC(=O)N(C)CC(=O)O	3.16
O=[N+]([O-])c1ccc2ccc(O)cc2c1	8.81
Cc1cc(C)c(O)c([N+](=O)[O-])c1	7.98
CC(CC(=O)O)C(N)=O (stereo not drawn)	4.59
O=C(O)c1cc(=O)cco1	1.5
COc1ccc(S(=O)(=O)NCc2ccccc2)cc1	11.5
Cc1cc(/N=N/c2ccc(S([NH-])(=O)=O)cc2)cc(C(=O)[O-])c1O	12.1

Structure (SMILES)	pKa
[NH3+]C1(C(=O)O)CCCCC1	2.66
CC#CCC(=O)O	3.6
Cc1cc(/N=N/c2ccc(S(N)(=O)=O)cc2)cc(C(=O)O)c1O	2.25
O=C(Cc1cccnc1)c1ccccc1	13.7
O=[N+]([O-])CCO	9.4
CCN(CC)Cc1cc(F)ccc1O	10.8
COc1cccc(=O)c(O)c1	7.24
NC(=O)[C@@H](N)Cc1ccccc1	7.26
Cc1cccc(C(=O)O)c1Cl	3
O=[N+]([O-])c1cc(O)ccc1O	7.42
O=C([O-])c1cc(O)c(O)c(C(=O)O)[o+]1	1.8
Oc1ccc(O)c(Cl)c1	8.81
O=C(O)C12CC3(F)CC(F)(CC(F)(C3)C1)C2	3.24
Cc1ccc(C(=O)C[S+](C)C)cc1	8.9
COCCSC(C)O (stereo not drawn)	14.2
Oc1ccc2[nH]cnc2c1	10
CCCC1(CCC)SC(=O)NC1=O	6.37
CN(C)C(=O)c1ncnc2nc[nH]c12	7.9
C[n+]1ccncc1O	-0.04
CC(=O)NOC(C)=O	6.81
C[NH+](C)CCc1c[nH]c2cccc(O)c12	8.47

Structure (SMILES)	pKa
Cn1cnc(C(=O)O)c1C(=O)O	-0.56
O=[N+]([O-])c1cc(-c2ccccc2)ccc1O	6.73
Cc1ccc(C(=O)c2cc[nH]n2)cc1	12
CC[NH+](CC)Cc1cccc(C)c1O	10
Nc1c[nH]nc1[N+](=O)[O-]	9.5
O=C(O)/C=C/c1ccc2c(c1)OCO2	4.6
Oc1c(Cl)cc(Cl)cc1C[NH+]1CCCCC1	5.97
[O-][n+]1cccc(O)c1	6.4
O=c1ccccc(O)c1	5.4
Cc1cc(Nc2ccc([O-])cc2)cc(C)c1O	10.9
O=C(O)COc1ccccc1	3.15
CC(=O)c1ccc(NS(=O)(=O)c2ccccc2)cc1	6.94
Cc1cc(C(=O)O)c[nH]1	5.35
NC(=O)C#CC#C/C=C/C(=O)O	3.52
Cc1ccc(O)c(Cc2cc([N+](=O)[O-])ccc2O)c1	6.34
Cc1c(Cn2cc[nH+]c2)sc2ccc(C(=O)O)cc12	3.82
O=C(O)C#CSc1ccccc1	2.11
C[NH+](C)Cc1ccc(NC(=O)/C=N/O)cc1	8.43
S=C(NCc1ccccc1)c1ccccc1	12.2
O=C(O)/C=C/c1cccc(O)c1	4.4

Same assay, conditions: basic group

Structure (SMILES)	pKa
N#CC(C#N)=NNc1ccc([N+](=O)[O-])cc1Cl	-0.62
CCC(O)CN(CC(O)CC)C(C)(C)C (stereo not drawn)	9.6
CCN(CC)Cc1cc(OC)ccc1O	8.62
Cc1ncc2nccnc2n1	4.87
CN[C@H]1C[C@@H]1[NH2+]C	5.65
